Measured values published in the NIST ThermoML archive (doi:10.1016/j.jct.2009.02.002).

Test: xn = mol fraction of the nth substance listed
Conditions: 101 kPa, Liquid; for viscosity: Capillary tube (Ostwald / Ubbelohde) method; for mass density: Vibrating tube method; for speed of sound: automatically measured using an Anton Paar DSA 5000 instrument

CC(C)CCCC(C)CCCC(C)CCCCC(C)CCCC(C)CCCC(C)C (configuration not stated) [2,6,10,15,19,23-hexamethyltetracosane] + CC(C)CO
Conditions	mass density, 298.15 K [kg/m3]	mass density, 303.15 K [kg/m3]	mass density, 308.15 K [kg/m3]	speed of sound, 298.15 K [m/s]	speed of sound, 303.15 K [m/s]	speed of sound, 308.15 K [m/s]	viscosity, 298.15 K [mPa·s]	viscosity, 303.15 K [mPa·s]	viscosity, 308.15 K [mPa·s]
x2 = 0.0803	804.648	801.388	798.13	1377	1359.1	1341.4	23.81	18.82	15.28
x2 = 0.1032	804.528	801.259	797.982	1375.6	1357.7	1340	22.85	18.11	14.72
x2 = 0.1672	804.219	800.916	797.596	1371.4	1353.4	1335.6	20.71	16.5	13.45
x2 = 0.2045	804.051	800.733	797.401	1368.7	1350.8	1332.9	19.78	15.78	12.85
x2 = 0.2551	803.824	800.484	797.129	1364.9	1347.2	1329.2	18.76	14.97	12.18
x2 = 0.3201	803.546	800.183	796.807	1359.9	1341.8	1324	17.7	14.12	11.47
x2 = 0.417	803.131	799.716	796.307	1351.3	1333.4	1315.5	16.34	12.99	10.54
x2 = 0.4978	802.728	799.277	795.831	1343.1	1325.1	1307.2	15.11	12	9.757
x2 = 0.6316	801.934	798.413	794.872	1325.5	1307.7	1290.1	12.54	9.98	8.196
x2 = 0.7005	801.422	797.855	794.26	1313.6	1295.9	1278.1	10.9	8.721	7.217
x2 = 0.8028	800.494	796.852	793.147	1289.2	1271.7	1254.1	8.199	6.648	5.581
x2 = 0.8482	800.015	796.317	792.582	1274.6	1257.1	1239.6	6.959	5.693	4.802
x2 = 0.9095	799.392	795.551	791.791	1248.9	1231.6	1214.3	5.361	4.404	3.728
x2 = 0.9448	799.012	795.162	791.339	1229.5	1212.5	1195.4	4.53	3.703	3.115

CCCCCCCCCCCCCCCC [hexadecane] + CC(C)CO
Conditions	mass density, 298.15 K [kg/m3]	mass density, 303.15 K [kg/m3]	mass density, 308.15 K [kg/m3]	speed of sound, 298.15 K [m/s]	speed of sound, 303.15 K [m/s]	speed of sound, 308.15 K [m/s]	viscosity, 298.15 K [mPa·s]	viscosity, 303.15 K [mPa·s]	viscosity, 308.15 K [mPa·s]
x2 = 0.0505	770.506	766.982	763.479	1333.6	1314.5	1296.1	2.807	2.494	2.233
x2 = 0.108	770.704	767.145	763.586	1328.2	1309.5	1291.1	2.658	2.345	2.102
x2 = 0.1539	770.945	767.37	763.784	1324.2	1305.5	1287	2.601	2.277	2.023
x2 = 0.2202	771.403	767.797	764.189	1318.4	1299.8	1281.3	2.576	2.246	1.975
x2 = 0.2709	771.834	768.215	764.58	1313.8	1295.1	1276.6	2.596	2.235	1.952
x2 = 0.3389	772.519	768.878	765.22	1307.3	1288.7	1270.2	2.638	2.252	1.946
x2 = 0.4112	773.437	769.755	766.075	1299.9	1281.3	1262.8	2.672	2.292	1.967
x2 = 0.5043	774.946	771.22	767.482	1289.8	1271.2	1252.8	2.694	2.296	1.985
x2 = 0.5989	776.918	773.158	769.37	1277.8	1259.3	1241	2.676	2.295	1.998
x2 = 0.6938	779.505	775.707	771.873	1263.6	1245.3	1227.4	2.643	2.274	1.984
x2 = 0.8115	783.946	780.177	776.274	1241.5	1223.8	1206.2	2.673	2.28	2
x2 = 0.8638	786.74	782.888	778.972	1229.5	1211.9	1194.4	2.756	2.322	2.009
x2 = 0.9037	789.326	785.457	781.543	1219	1201.6	1184.3	2.874	2.379	2.046
x2 = 0.938	792.003	788.12	784.196	1209.3	1192.2	1175.2	3.023	2.469	2.082
